Measured values reported in patent publication US20090264492A1, “PHARMACEUTICAL COMPOSITION FOR THE TREATMENT OF A FUNGAL SKIN DISORDER AND A METHOD FOR THE PREPARATION THEREOF” (Stichting Voor de Technische Wetenschappen, priority 2006, published 2009).

Legend:
T. rubrum = assay: PDT of T. rubrum on human stratum corneum (ex-vivo model), fungicidal effect; format: cell-based, Trichophyton rubrum; conditions: acidic pH versus pH 7.4
Protocol: A polycarbonate membrane filter, 25 mm in diameter and a pore size of 2 μm (Whatman, Breda, The Netherlands) was placed in the central part of a 3 cm culture dish (Greiner, Alphen aan den Rijn, The Netherlands) filled with 5 ml of Malt Extract Agar (MEA). A circular piece of human stratum corneum (SC) with a diameter of 1 cm was subsequently placed on the membrane filter and both were gently brushed with a paintbrush dipped in 70% ethanol. A microconidia suspension isolated from Trichphyton rubrum (CBS nr. 304.60 obtained from Centraal Bureau voor Schimmelcultures, Utrecht, The Netherlands, and prepared as described by Smijs G. M. T. et al (2004) in “Photodynamic treatment of the dermatophyte Trichophyton Rubrum and its microconidia with porphyrin sensitizers. PhotoChemistry and PhotoBiology, 80, 197 - 202”) was diluted to 1000 CFU/ml and 15 μl was inoculated on the circular sheet of human SC. The dish was placed in an incubator at 28° C. and at 17 hours after spore inoculation photodynamic treatment (PDT) was applied.
At 17 hours after spore inoculation, the membrane filter with SC containing spore inoculates was transported from the MEA dish to a 3 cm culture dish filled with 1035 μl incubation medium. The incubation medium contained 1 ml of distilled water with an adjusted pH (3.5, 4.5, 5.2, or 7.4) and 35 μl of a Sylsens B stock solution (Buchem, Apeldoorn, the Nederland) . To optimize the contact of the inoculates with the incubation medium, the membrane filter with the SC was turned upside down during the incubation period of 2 hours. The incubation was performed under continuous shaking conditions. Shortly before the illumination period the membrane filter containing the SC was turned back (surface SC now faces the lamp). In all cases, the illumination time was 1 hour using a red light irradiance of 30 mW/cm^2. This corresponds to a light dose of 108 J/cm^2. After the illumination the membrane filter with the SC were transported to a fresh MEA dish, placed in a 28° C. incubator and fungal growth was followed for several weeks. Dark controls were included, i.e. the same procedure was carried out except that the inoculated microconidia on human skin were treated with solvent and/or photosensitizer in the dark. In the light controls, the microconidia were treated with solvent (only) in the presence of light. The efficacy of the treatment was expressed as a relative frequency of complete inactivation (killing) of fungal growth detected at day 8 after spore inoculation. This was assessed microscopically with the use of a Zeiss Axiovert 25 (Germany). […] The treatment effect was followed for a period of several months. Every experiment contained 4 to 6 duplicates of all conditions and the experiments were repeated 3 times at least.
PDT of T. rubrum 17 hours after spore inoculation using the ex-vivo model, different concentrations of Sylsens B and a different pH (water medium). The numbers indicate the relative frequency of the fungicidal effect^1. Numbers between brackets give the number of tests performed.
The experiment with Sylsens B was repeated more extensively, for a longer period of time and with more samples. More specifically, the photodynamic efficacy of Sylsens B towards T. rubrum was tested at 17 (FIG. 2a), 48 (FIG. 2b) and 72 hours (FIG. 2c) after spore inoculation on human SC, at the following incubation pH values: Filled diamonds: pH 3.5, filled squares: pH 5.2 and filled triangles: pH 7.4.

[1] = test system: the fungus cultivated in suspension; assay: binding of Sylsens B to the fungus cultivated in suspension / photodynamic effect with competing cations; format: cell-based, T. rubrum; conditions: Alcian Blue 160 μM versus Sylsens B 160 μM
Protocol: In the above experiments, deuteroporphyrin monomethylether (DP mme), an anionic porphyrin, was used as a control. […] The effect of calcium-ions was investigated by determining the photodynamic effect in the presence of 5 mM CaCl2 at pH 5.2. […] So, PDT may even be used to inactivate (kill) the growing fungus if measures are taken to prevent naturally present calcium from interfering with the treatment, in particular by using a chelating compound such as EDTA.

## deuteroporphyrin monomethylether [DP mme, reference compound]
T. rubrum
  effect of acidic pH on photodynamic activity: failed to display the observed pH effect

## Alcian Blue [reference compound]
[1]
  competition for binding to the fungus: competed with Sylsens B

## C[n+]1ccc(-c2c3nc(c(-c4cc[n+](C)cc4)c4ccc([nH]4)c(-c4cc[n+](C)cc4)c4nc(c(-c5cc[n+](C)cc5)c5ccc2[nH]5)C=C4)C=C3)cc1.[Cl-].[Cl-].[Cl-].[Cl-] [meso-tetra(N-methyl-4-pyridyl)porphyrin tetrachloride, reference compound]
T. rubrum
  effect of acidic pH on photodynamic activity: improved activity at acidic pH, albeit to a lesser extent than Sylsens B
